Experimental data: patent publication US10588280B2, “Aided delivery of plant treatment agents” (Monsanto Technology LLC, priority 2014, dated 2020)

Experiments:
[1] = test system: haploid seedlings derived from 91DUQ1 or 83IDI1; experiment: Example 7: serial centrifugation with colchicine at three growth stages (FIG. 4); type: in vivo, maize; settings: 1250 ppm colchicine, submerged 50 g 3 min then unsubmerged 335 g 3 min, ear with at least four kernels
Text: Three different growth stages and the effects on DH-related success indicators between the three life stages were compared.
F1 hybrid-derived haploid seedlings derived from either female inbred line 91DUQ1 or male inbred line 83IDI1 were germinated in soil in a greenhouse in standard maize growing conditions. To ensure that the older seedlings would fit into the centrifuge sample container, and to ensure that all seedlings received the same chemical treatments, all seedlings were subjected to a 1% paclobutrazol (PBZ) soil drench treatment at 6 days after planting, 10 ml per plant.
This population of seedlings was subdivided into 3 samples, each comprising several dozen seedlings. Half of the seedlings in each sample were derived from 91DUQ1 and the other half derived from 83IDI1. A first sample was removed from the soil at the V1-V2 growth stage (1 week after planting), a second sample removed from the soil at the V3-V4 stage (2 weeks after planting) and a third sample removed from the soil at the V4-V5 growth stage (3 weeks after planting).
Following removal from the soil, seedlings in each sample were rinsed in water to remove residual soil, then wrapped in a PCS along with several wooden rods, similar that that shown in FIG. 9, and subjected to a first submerged centrifugation in 1250 ppm colchicine at 50 g for 3 min.
Following the first, submerged centrifugation, the plant treatment solution was decanted. The seedlings, with some residual agent clinging to their surfaces, were returned to the empty centrifuge container and subjected to a unsubmerged centrifugation at 335 g for 3 min. […]
Self-pollinations were attempted with each plant that survived the treatment to produce pollen and silks and during the ensuing growth the pollination success, fertilization success and final doubling efficiency were determined within each sample. In this experiment, the doubling efficiency within each growth stage sample was calculated by dividing the number of plants that produced at least one ear comprising at least four kernels by the total number of plants treated.

[2] = test system: haploid seedlings derived from 91DUQ1 or 83IDI1 (SAM); experiment: Example 9: serial centrifugation with colchicine and incubation between spins; type: in vivo, maize; settings: submerged 100 g 3 min, unsubmerged 340 g 3 min, ear with at least four kernels
Text: F1 hybrid-derived haploid seedlings derived from either female inbred line 91DUQ1 or male inbred line 83IDI1 were germinated in soil in a greenhouse in standard maize growing conditions and grown to the V1 growth stage (1 week after planting). Next, the seedlings were removed from the soil, rinsed with water to remove residual soil form the plants, and then divided into 4 samples comprising several seedlings of each germplasm per sample.
Each sample was then bundled in a PCS comprising an aluminum foil wrap and wooden rods for support, similar to that shown in FIG. 9. Once bundled in a PCS, each sample was contacted by a plant treatment solution comprising either 600 ppm or 800 ppm colchicine such that the SAM of each plant was entirely submerged, and then each sample was centrifuged at 100 g for 3 min with the SAMs submerged in the reserve doubling agent during centrifugation.
Following the submerged centrifugation, plants were removed from the centrifuge container and while some doubling solution from the first centrifugation remained clinging to the plants, the roots and bottom half of each stem were rinsed in water to remove any doubling agent from that end of the plant. Then each bundled sample was incubated in an enclosed, humid environment for one of the four incubation periods listed Table 8.
Following each respective incubation period, the bundled samples were removed from the humid enclosure and subjected to an unsubmerged centrifugation at 340 g for 3 min, wherein the only doubling solution that contacted the plants was that which remained on the plants from the previous submerged centrifugation, i.e. no additional doubling solution was added to the plants after the first centrifugation.
Following the second centrifugation, the plants were removed from the centrifugation container and rinsed with water to remove any remaining colchicine solution, and then recovered and tended in a light, humidity, and temperature-controlled greenhouse for several days before being transplanted to a nursery green house where they were tended under standard maize growing conditions until they grew to maturity and flowered.
Self-pollinations were attempted with each plant that survived the treatment to produce pollen and final doubling efficiencies were determined within each treatment. In this experiment, the doubling efficiency within each treatment sample was calculated by dividing the number of plants of each treatment sample that produced at least one ear comprising at least four kernels by the total number of plants subjected to that set of treatment conditions.

[3] = test system: haploid seedlings derived from corn inbred 91DUQ1 or 83IDI1 (SAM); experiment: Example 8: serial centrifugation with colchicine, unsubmerged spin at 340 g to 2000 g; type: in vivo; settings: 1250 ppm colchicine, submerged 50 g 3 min
Text: F1 hybrid-derived haploid seedlings derived from either female corn inbred line 91DUQ1 or male corn inbred line 83IDI1 were germinated in soil in a greenhouse in standard maize growing conditions and grown to the V1-V2 growth stage (1 week after planting). Seedlings were then removed from the soil, rinsed to remove residual soil, and partitioned into 5 samples comprising several dozen seedlings each.
This bundled PCS sample was placed into a centrifuge container, roots first. Each plant of the other four samples were individually wrapped to a PCS comprising a rod with a paraffin wrap and placed into a separate centrifuge container, one plant-PCS assembly per container, similar to that shown in FIG. 7.
Once attached to their respective PCSs and placed into their respective centrifuge containers, a solution comprising 1250 ppm colchicine was added to each container until each plant was submerged at least up until the SAM of every plant was submerged. All samples were then centrifuged with the SAMs submerged in treatment solution for 3 min at 50 g.
Following the first centrifugation, the treatment solution was drained from each centrifugation container, and then each sample was subjected to an unsubmerged spin for 3 minutes at one of six different rates, ranging from 340 g to 2000 g, as shown in Table 9.
Following the second centrifugation, the plants were removed from the centrifugation container and rinsed with water to remove any remaining colchicine solution, and then transplanted into 10-inch pots and tended in a growth room under standard maize growing conditions until they grew to maturity and flowered.
Self-pollinations were attempted with each plant that survived the treatment to produce pollen and an ear, and pollination success as determined within each sample.

[4] = bundled PCS, unsubmerged 340 g 3 min
[5] = individually-wrapped PCS, unsubmerged 340 g 3 min
[6] = individually-wrapped PCS, unsubmerged 500 g 3 min
[7] = individually-wrapped PCS, unsubmerged 750 g 3 min
[8] = individually-wrapped PCS, unsubmerged 1000 g 3 min
[9] = individually-wrapped PCS, unsubmerged 2000 g 3 min

Q: For `COc1cc2c(c(OC)c1OC)-c1ccc(OC)c(=O)cc1[C@@H](NC(C)=O)CC2` [colchicine], which DE ([1]; V1-V2 growth stage) is on record?
A: over 70%

Q: And the “doubling efficiency, average” value ([1]; V4-V5 growth stage)?
A: ~30%

Q: What about the “doubling efficiency, median” value ([1]; V4-V5 growth stage) of the same molecule?
A: 36.7%

Q: What about the DE ([2]; 600 ppm colchicine, incubation 3 min) of the same molecule?
A: 0.41

Q: And the DE ([2]; 600 ppm colchicine, incubation 3 hrs)?
A: 0.78

Q: And the DE ([2]; 800 ppm colchicine, incubation 3 min)?
A: 0.66

Q: And the DE ([2]; 800 ppm colchicine, incubation 3 hrs)?
A: 0.79

Q: And the DE [3, 4]?
A: 68.9%

Q: What about the “Fertilization Success” value [3, 4] of the same molecule?
A: 85.0%

Q: What about the Pollination success [3, 4] of the same molecule?
A: 90.0%

Q: And the “Survival Rate” value [3, 4]?
A: 90.0%

Q: What about the DE [3, 5] of the same molecule?
A: 89.3%

Q: What about the “Fertilization Success” value [3, 5] of the same molecule?
A: 96.2%

Q: And the Pollination success [3, 5]?
A: 100.0%

Q: What about the “Survival Rate” value [3, 5] of the same molecule?
A: 92.9%

Q: What about the DE [3, 6] of the same molecule?
A: 96.4%

Q: What about the “Fertilization Success” value [3, 6] of the same molecule?
A: 100.0%

Q: What about the Pollination success [3, 6] of the same molecule?
A: 100.0%

Q: And the “Survival Rate” value [3, 6]?
A: 96.4%

Q: And the DE [3, 7]?
A: 83.3%

Q: And the “Fertilization Success” value [3, 7]?
A: 95.2%

Q: And the Pollination success [3, 7]?
A: 100.0%

Q: And the “Survival Rate” value [3, 7]?
A: 87.5%

Q: And the DE [3, 8]?
A: 85.7%

Q: And the “Fertilization Success” value [3, 8]?
A: 100.0%

Q: What about the Pollination success [3, 8] of the same molecule?
A: 92.3%

Q: And the “Survival Rate” value [3, 8]?
A: 92.9%

Q: What about the DE [3, 9] of the same molecule?
A: 63.6%

Q: And the “Fertilization Success” value [3, 9]?
A: 87.5%

Q: And the Pollination success [3, 9]?
A: 100.0%

Q: And the “Survival Rate” value [3, 9]?
A: 72.7%
